The values that follow come from ChEMBL document CHEMBL3297725, “Acridone alkaloids from Glycosmis chlorosperma as DYRK1A inhibitors” (J Nat Prod, 2014).

Assay [1] concerns the target Cyclin-dependent kinase 1 (Homo sapiens, UniProt P06493). Put plainly: Inhibition of CDK1 (unknown origin) assessed as inhibition of phosphate incorporation into substrate in presence of radiolabeled ATP.
The target of assay [2] is Glycogen synthase kinase-3 (Homo sapiens, UniProt P49840+P49841). Put plainly: Inhibition of GSK3 (unknown origin) assessed as inhibition of phosphate incorporation into substrate in presence of radiolabeled ATP. Format: protein assay.
The target of assay [3] is Cyclin-dependent kinase 5 (Homo sapiens, UniProt Q00535). Put plainly: Inhibition of CDK5 (unknown origin) assessed as inhibition of phosphate incorporation into substrate in presence of radiolabeled ATP.
Chain of Cyclin-dependent kinase 5 (Q00535 whole entry): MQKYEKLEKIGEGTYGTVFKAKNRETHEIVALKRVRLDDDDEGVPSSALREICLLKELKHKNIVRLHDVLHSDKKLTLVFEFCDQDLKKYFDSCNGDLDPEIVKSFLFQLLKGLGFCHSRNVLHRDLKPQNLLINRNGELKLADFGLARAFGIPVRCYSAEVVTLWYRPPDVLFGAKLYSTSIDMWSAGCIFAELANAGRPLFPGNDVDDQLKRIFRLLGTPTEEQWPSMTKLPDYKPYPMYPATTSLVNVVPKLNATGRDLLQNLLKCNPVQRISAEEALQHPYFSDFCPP
The target in assay [4] is Dual specificity protein kinase CLK1 (Mus musculus) (UniProt P22518). Put plainly: Inhibition of CLK1 (mouse recombinant) assessed as inhibition of phosphate incorporation into substrate in presence of radiolabeled ATP.
Chain of Dual specificity protein kinase CLK1 (Mus musculus) (P22518 whole entry, looked up): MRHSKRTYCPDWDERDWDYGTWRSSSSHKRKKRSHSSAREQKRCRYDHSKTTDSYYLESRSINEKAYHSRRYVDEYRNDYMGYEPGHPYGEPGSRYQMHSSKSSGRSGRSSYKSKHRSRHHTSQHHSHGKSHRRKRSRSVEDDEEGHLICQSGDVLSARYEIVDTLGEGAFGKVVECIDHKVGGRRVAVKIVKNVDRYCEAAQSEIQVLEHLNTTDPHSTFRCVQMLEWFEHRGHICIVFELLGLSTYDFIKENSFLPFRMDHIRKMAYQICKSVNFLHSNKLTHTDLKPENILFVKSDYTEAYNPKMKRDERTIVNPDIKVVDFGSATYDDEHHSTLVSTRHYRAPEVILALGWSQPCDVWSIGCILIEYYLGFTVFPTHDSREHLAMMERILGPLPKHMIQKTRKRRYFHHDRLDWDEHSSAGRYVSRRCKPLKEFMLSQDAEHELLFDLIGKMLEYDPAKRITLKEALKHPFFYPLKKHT
The target in assay [5] is Dual specificity tyrosine-phosphorylation-regulated kinase 1A (Homo sapiens, UniProt Q13627). Put plainly: Inhibition of DYRK1A (unknown origin) assessed as inhibition of phosphate incorporation into substrate in presence of radiolabeled ATP.
Assay [6] concerns Casein kinase 1 delta/epsilon (Sus scrofa). Put plainly: Inhibition of CK1 (porcine brain) assessed as inhibition of phosphate incorporation into substrate in presence of radiolabeled ATP.
The target in the next assay is CDK9/cyclin T1 (Homo sapiens, UniProt P50750). Put plainly: Inhibition of CDK9/cyclin T (unknown origin). Format: protein-complex assay.
Chain of CDK9/cyclin T1 (O60563 whole entry): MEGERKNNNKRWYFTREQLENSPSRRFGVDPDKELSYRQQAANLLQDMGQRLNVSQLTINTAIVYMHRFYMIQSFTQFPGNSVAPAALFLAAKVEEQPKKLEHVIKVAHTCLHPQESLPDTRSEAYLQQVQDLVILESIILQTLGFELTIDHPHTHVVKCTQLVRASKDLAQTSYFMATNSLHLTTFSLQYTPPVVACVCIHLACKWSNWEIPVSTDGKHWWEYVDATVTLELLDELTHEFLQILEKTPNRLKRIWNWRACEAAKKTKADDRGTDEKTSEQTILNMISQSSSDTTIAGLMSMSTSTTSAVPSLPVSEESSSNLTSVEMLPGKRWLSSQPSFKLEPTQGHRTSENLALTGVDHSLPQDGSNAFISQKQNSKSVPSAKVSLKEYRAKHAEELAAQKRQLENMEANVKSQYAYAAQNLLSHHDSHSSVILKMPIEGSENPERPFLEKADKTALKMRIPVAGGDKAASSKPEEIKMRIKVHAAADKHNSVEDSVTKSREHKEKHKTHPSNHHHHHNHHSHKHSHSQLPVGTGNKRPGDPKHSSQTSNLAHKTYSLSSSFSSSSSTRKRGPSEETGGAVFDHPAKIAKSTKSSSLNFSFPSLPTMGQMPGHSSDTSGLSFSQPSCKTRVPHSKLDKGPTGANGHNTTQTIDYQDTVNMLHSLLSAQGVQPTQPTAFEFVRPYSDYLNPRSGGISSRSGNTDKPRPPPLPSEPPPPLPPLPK
Chain of CDK9/cyclin T1 (P50750 whole entry): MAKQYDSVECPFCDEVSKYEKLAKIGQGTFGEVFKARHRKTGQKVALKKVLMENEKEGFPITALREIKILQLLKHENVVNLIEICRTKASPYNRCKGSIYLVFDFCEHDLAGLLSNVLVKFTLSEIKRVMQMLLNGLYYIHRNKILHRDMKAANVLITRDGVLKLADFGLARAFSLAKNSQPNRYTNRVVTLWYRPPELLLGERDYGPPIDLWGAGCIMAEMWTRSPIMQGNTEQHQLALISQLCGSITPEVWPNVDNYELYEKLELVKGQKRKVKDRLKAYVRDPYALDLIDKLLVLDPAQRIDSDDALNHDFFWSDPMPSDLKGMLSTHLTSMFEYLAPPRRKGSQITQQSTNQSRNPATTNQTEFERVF
Assay [7] concerns the target T1, Dual specificity tyrosine-phosphorylation-regulated kinase 2 (Homo sapiens, UniProt Q92630).
T1 sequence (Q92630 whole entry): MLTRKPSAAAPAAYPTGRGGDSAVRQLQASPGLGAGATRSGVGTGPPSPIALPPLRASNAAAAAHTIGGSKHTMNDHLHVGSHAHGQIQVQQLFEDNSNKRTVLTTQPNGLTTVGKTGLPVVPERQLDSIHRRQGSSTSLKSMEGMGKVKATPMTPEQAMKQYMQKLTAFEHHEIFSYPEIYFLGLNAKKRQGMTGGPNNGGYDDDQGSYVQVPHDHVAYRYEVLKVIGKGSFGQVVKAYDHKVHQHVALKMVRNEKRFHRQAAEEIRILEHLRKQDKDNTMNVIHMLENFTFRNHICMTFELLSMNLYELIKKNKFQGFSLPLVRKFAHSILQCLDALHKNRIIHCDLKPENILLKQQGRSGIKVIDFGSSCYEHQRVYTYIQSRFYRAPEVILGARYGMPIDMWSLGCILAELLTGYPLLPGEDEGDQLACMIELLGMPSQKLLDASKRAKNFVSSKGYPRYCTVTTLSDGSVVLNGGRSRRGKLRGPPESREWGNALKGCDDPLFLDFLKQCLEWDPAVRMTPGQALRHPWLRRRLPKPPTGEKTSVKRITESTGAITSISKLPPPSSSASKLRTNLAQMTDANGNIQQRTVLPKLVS
Put plainly: Inhibition of DYRK2 (unknown origin).

The target of assay [8] is Glycogen synthase kinase-3 (Sus scrofa, UniProt B2LUN4+I6LNT8). Put plainly: Inhibition of GSK3 alpha/beta in porcine brain assessed as inhibition of phosphate incorporation using YRRAAVPPSPSLSRHSSPHQSpEDEEE and [gamma-33P]ATP as substrate after 30 mins by scintillation counting analysis.
For assay [9], the target named is Dual specificity protein kinase CLK1 (Mus musculus, UniProt P22518). Put plainly: Inhibition of mouse recombinant GST-fused CLK1 expressed in Escherichia coli cells assessed as inhibition of phosphate incorporation using GRSRSRSRSRSR and [gamma-33P]ATP as substrate after 30 mins by scintillation counting analysis.
Chain of Dual specificity protein kinase CLK1 (P22518 whole entry, the tested form may be a part): as the sequence (P22518 whole entry, looked up) above
The target of assay [10] is Dual specificity protein kinase CLK4 (Homo sapiens, UniProt Q9HAZ1). Put plainly: Inhibition of CLK4 (unknown origin).
Chain of Dual specificity protein kinase CLK4 (Q9HAZ1 whole entry): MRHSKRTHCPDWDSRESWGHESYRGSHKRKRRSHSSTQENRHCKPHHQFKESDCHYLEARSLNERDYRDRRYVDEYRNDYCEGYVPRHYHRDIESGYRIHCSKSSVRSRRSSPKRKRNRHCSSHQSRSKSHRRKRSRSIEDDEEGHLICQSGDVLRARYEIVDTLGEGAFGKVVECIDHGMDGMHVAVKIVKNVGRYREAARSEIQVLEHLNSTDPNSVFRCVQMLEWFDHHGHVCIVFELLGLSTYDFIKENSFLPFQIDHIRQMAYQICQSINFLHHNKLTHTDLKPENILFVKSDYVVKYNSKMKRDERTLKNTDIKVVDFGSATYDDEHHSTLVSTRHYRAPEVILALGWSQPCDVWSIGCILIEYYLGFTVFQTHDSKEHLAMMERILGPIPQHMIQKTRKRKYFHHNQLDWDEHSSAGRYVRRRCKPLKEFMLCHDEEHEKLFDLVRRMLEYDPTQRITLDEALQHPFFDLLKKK
Assay [11] deals with Dual specificity protein kinase CLK3 (Homo sapiens, UniProt P49761). Put plainly: Inhibition of CLK3 (unknown origin).
Chain of Dual specificity protein kinase CLK3 (P49761 whole entry): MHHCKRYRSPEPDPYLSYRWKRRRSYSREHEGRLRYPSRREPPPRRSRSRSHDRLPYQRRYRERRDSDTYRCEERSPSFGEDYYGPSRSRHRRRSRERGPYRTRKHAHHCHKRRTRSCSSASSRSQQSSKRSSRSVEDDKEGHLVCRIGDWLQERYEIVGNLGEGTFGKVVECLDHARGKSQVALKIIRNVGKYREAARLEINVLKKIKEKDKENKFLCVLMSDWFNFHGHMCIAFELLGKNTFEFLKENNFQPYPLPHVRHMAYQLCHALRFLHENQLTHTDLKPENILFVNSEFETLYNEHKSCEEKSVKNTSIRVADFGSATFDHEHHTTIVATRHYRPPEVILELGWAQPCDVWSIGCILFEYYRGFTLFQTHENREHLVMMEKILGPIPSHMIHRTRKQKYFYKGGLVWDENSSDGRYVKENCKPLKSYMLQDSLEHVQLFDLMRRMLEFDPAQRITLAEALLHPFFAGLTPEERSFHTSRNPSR
Assay [12] concerns the target Dual specificity protein kinase CLK2 (Homo sapiens, UniProt P49760). Put plainly: Inhibition of CLK2 (unknown origin).
For assay [13], the target named is Dual specificity tyrosine-phosphorylation-regulated kinase 1B (Homo sapiens, UniProt Q9Y463). Put plainly: Inhibition of DYRK1B (unknown origin).
Chain of Dual specificity tyrosine-phosphorylation-regulated kinase 1B (Q9Y463 whole entry): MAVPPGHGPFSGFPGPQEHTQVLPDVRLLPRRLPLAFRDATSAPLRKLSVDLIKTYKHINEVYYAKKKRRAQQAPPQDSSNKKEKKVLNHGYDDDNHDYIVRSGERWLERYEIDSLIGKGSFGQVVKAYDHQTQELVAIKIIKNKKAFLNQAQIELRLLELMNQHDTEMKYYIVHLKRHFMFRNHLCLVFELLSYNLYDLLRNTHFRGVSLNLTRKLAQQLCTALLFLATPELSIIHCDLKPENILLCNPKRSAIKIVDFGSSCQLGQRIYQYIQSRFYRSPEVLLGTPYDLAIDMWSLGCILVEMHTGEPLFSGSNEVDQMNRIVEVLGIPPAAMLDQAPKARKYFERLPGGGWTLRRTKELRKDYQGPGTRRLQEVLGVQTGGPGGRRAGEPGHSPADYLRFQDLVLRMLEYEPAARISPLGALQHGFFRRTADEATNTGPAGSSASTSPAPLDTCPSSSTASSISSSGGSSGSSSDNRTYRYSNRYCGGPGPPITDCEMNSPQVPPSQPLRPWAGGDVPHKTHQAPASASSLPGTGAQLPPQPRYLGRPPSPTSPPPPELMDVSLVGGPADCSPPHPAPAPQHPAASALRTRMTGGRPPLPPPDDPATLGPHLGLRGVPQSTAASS
Assay [14] deals with Dual specificity tyrosine-phosphorylation-regulated kinase 1A (Rattus norvegicus, UniProt Q63470). Put plainly: Inhibition of rat DYRK1A assessed as inhibition of phosphate incorporation using GRSRSRSRSRSR and [gamma-33P]ATP as substrate after 30 mins by scintillation counting analysis.
Assay [15] has as its target T2, Dual specificity tyrosine-phosphorylation-regulated kinase 3 (Homo sapiens, UniProt O43781).
T2 sequence (O43781 whole entry): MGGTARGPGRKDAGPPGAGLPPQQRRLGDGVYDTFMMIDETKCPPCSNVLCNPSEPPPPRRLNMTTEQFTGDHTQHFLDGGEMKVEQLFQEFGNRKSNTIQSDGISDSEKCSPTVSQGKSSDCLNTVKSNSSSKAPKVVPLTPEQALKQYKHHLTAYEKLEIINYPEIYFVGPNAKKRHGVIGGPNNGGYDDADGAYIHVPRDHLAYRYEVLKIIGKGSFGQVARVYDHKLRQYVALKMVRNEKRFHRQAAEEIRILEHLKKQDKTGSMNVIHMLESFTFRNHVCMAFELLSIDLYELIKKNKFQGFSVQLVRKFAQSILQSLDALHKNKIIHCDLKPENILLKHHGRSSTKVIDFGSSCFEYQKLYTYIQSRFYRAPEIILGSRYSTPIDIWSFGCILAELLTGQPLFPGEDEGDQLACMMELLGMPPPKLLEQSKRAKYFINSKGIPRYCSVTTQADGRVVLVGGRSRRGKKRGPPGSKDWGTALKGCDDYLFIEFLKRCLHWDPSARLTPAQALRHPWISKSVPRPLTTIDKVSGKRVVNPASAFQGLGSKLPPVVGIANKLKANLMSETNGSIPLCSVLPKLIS
Put plainly: Inhibition of DYRK3 (unknown origin).

In another assay the target is CDK2/Cyclin A2 (Homo sapiens, UniProt P24941). Put plainly: Inhibition of CDK2/cyclin A (unknown origin). Format: protein-complex assay.
The target of assay [16] is Cyclin-dependent kinase 5/CDK5 activator 1 (Homo sapiens, UniProt Q00535). Put plainly: Inhibition of CDK5/p25 (unknown origin) assessed as inhibition of phosphate incorporation using histone 1 and [gamma-33P]ATP as substrate after 30 mins by scintillation counting analysis. Format: protein-complex assay.
Chain of Cyclin-dependent kinase 5/CDK5 activator 1 (Q00535 whole entry): as the sequence (Q00535 whole entry) above
Chain of Cyclin-dependent kinase 5/CDK5 activator 1 (Q15078 whole entry, further chain): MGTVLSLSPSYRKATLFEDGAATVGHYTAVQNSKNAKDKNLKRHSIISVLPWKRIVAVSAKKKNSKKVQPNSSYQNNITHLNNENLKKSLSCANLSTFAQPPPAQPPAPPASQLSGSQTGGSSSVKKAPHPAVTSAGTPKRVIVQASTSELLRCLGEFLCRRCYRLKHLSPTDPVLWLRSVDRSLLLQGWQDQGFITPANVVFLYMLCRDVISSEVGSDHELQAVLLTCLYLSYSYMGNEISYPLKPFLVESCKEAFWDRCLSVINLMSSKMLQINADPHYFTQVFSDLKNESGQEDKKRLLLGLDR
A short description of assay [17]: Inhibition of CK1 delta/epsilon in porcine brain assessed as inhibition of phosphate incorporation using RRKHAAIGpSAYSITA and [gamma-33P]ATP as substrate after 30 mins by scintillation counting analysis. Details: species or system Sus scrofa.
A short description of assay [18]: Inhibition of CDK1/cyclin B in starfish oocytes assessed as inhibition of phosphate incorporation using histone 1 and [gamma-33P]ATP as substrate after 30 mins by scintillation counting analysis. Details: species or system Patiria pectinifera.

Chain of Cyclin-dependent kinase 1 (P06493 whole entry): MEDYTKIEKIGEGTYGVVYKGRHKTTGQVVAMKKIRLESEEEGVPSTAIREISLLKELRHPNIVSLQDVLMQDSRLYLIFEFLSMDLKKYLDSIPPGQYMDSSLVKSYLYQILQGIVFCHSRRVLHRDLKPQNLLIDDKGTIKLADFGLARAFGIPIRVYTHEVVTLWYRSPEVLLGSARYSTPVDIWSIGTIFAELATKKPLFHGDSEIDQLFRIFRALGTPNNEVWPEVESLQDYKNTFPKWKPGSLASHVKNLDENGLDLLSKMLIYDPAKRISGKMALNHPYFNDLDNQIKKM
Chain of Dual specificity protein kinase CLK2 (P49760 whole entry): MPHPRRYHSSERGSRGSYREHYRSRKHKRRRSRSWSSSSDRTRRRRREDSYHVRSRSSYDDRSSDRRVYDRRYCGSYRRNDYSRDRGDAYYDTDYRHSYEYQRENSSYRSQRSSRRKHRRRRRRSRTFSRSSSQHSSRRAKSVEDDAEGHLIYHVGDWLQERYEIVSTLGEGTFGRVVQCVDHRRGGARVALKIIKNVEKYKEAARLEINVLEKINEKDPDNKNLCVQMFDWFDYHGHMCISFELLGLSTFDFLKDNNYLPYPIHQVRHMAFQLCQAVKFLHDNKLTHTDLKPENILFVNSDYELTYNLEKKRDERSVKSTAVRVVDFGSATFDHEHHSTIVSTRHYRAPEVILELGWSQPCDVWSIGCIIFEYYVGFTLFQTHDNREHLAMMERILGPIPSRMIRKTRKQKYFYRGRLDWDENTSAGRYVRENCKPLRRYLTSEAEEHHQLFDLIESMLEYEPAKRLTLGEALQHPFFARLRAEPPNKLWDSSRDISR

On to `Cn1c2c(O)cccc2c(=O)c2c3c(c4c(c21)C=CC(C)(C)O4)C=C(O)C(C)(C)O3`, for which the IC50 in assay [1], in assay [2], in assay [3], in assay [4], in assay [5] and in [6] was > 10000 nM each time.

Regarding `Cn1c2c(O)cccc2c(=O)c2c3occc3c3c(c21)C=CC(C)(C)O3`, the IC50 is > 10000 nM in assay [1]; > 10000 nM in assay [2]; > 10000 nM in assay [3]; 7000 nM in assay [4]; 5700 nM in assay [5]; > 10000 nM in assay [6].

As to `COc1c(O)ccc2c(=O)c3c(O)cc4c(c3[nH]c12)C=CC(C)(C)O4`, the IC50 against CDK9/cyclin T1 is 820 nM; in assay [7], 1700 nM; in assay [1], 5300 nM; in [2] it was 2000 nM; in [8], 710 nM; in assay [9], 210 nM. The IC50 came out at 220 nM in assay [10]; 9000 nM in [3]; 2300 nM in assay [11]; 170 nM in assay [4]; 680 nM in assay [12]; 75 nM in assay [5]. Moreover, the IC50 was 350 nM in [13]; 90 nM in assay [14]; 1200 nM in [15]; 8200 nM on CDK2/Cyclin A2; > 10000 nM in [16]; > 10000 nM in assay [6]. In addition, the IC50 in assay [17] stood at 8700 nM; in [18], 1100 nM.

Consider `O=C1Nc2cc(Br)ccc2/C1=C1/Nc2ccccc2/C1=N\O` [6BIO], for which the IC50 in assay [5] was 52 nM.

As for `CC1(C)C=Cc2c(cc(O)c3c(=O)c4cccc(O)c4[nH]c23)O1` [ATOLAPHYLLIDINE], the IC50 in [1] is > 10000 nM; in assay [2], > 10000 nM; in assay [3] it was > 10000 nM; in assay [4] it was ≥ 10000 nM; in assay [5], 2200 nM; in assay [6] it was > 10000 nM.
